The target in series [1] is T1, CYP 1A2 (Homo sapiens, UniProt P05177).
T1 sequence (P05177 1-516): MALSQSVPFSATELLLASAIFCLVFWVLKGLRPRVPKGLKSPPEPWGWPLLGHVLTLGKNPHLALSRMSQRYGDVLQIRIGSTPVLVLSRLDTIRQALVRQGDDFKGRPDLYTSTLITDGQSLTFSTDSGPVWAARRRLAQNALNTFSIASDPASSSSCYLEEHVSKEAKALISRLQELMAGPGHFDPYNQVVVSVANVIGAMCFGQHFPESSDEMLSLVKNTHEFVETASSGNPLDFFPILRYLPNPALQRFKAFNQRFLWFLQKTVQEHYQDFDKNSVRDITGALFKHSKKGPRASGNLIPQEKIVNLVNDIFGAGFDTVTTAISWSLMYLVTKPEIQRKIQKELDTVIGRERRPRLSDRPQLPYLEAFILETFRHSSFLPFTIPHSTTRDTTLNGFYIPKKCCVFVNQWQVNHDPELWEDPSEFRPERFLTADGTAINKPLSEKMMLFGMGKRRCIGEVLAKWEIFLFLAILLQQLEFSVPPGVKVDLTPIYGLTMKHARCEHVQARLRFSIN
Particulars: pH 7.4. The method, then:
The quality of the Chinese and Caucasian liver microsomes was checked by measuring the activity of CYP1A2 and CYP2A6 by the method of Yang et al. ([2012]). The quality of Chinese and Caucasian liver S9 samples was checked by measuring the SULT activity based on the method provided by Wang et al. ([2006]). The details of the methods for the microsomal and S9 in vitro incubations and UPLC analysis for assessing the metabolic capabilities of CYP and SULT enzymes can be found in the supporting materials 1.
The quality of the Chinese and Caucasian liver microsomes was checked by measuring the activity of CYP 1A2 and CYP 2A6 by the method of Yang et al. (Yang et al. 2012). CYP 1A2 and CYP 2A6 are predominant enzymes for formation of 1'-hydroxyestragole (Jeurissen et al. 2007). The activity of CYP 1A2 was measured with the substrate phenacetin, and the activity of CYP 2A6 was checked using the substrate coumarin. […] The samples were centrifuged for 5 min at 16, 000g to precipitate microsomal proteins and analyzed by UPLC.
Before UPLC analysis, all samples were centrifuged for 5 min at 16, 000g to precipitate microsomal or cytosolic proteins. Supernatant of each sample was analyzed on UPLC using a BEH C18 (1.7 μm 2.1×50 mm) column with a guard column and a diode array detector (Acquity, Waters).

On the set-up of series [2]: method as in Bartoli et al. [1996]. Particulars: peak at 0.5–2 h; clearance within 7 h of administration; marker for CYP1A2 activity; ref Bartoli et al. [1996]; cited from earlier work.
In series [3] the target is T1, CYP 1A2. The settings on record: cited from earlier work.
The conditions of series [4]: PBK prediction; route not stated; ref Barter et al. [2013]; cited from earlier work.
For series [5] the following is noted: route not stated; ref Barter et al. [2013]; cited from earlier work.
On the set-up of series [6]: method as in Van Den Berg et al. [2011]. Particulars: lower confidence bound of the Benchmark Dose giving 10% extra cancer incidence; ref Van Den Berg et al. [2011]; cited from earlier work.

The source of these data is article PMC5562778 (Archives of Toxicology, 2017).

With `CCOc1ccc(NC(C)=O)cc1` [phenacetin], the “Catalytic efficiency of CYP 1A2 mediated conversion, lower in Chinese than Caucasian liver microsomes” value at CYP 1A2 [1] (microsomes) is given as 3 fold. Also, the “Catalytic efficiency (Vmax/Km), CYP 1A2 mediated O-deethylation” value on CYP 1A2 [1] is 3.1 µl/min/(mg microsomal protein). Also, the “Peak plasma concentrations and apparent oral clearance, Chinese versus Caucasian subjects” value in series [2] is “not differ”. Further, the “Catalytic efficiency of CYP 1A2, lower for Chinese liver microsomes” value at CYP 1A2 [3] was 2 fold. For the same compound, the “Catalytic efficiency for CYP 1A2” value at CYP 1A2 [3] (microsomes) is 0.6-51.4 µl/min/(mg microsomal protein). Further, the “Predicted clearance, lower in Chinese than in Caucasian subjects” value in series [4] was 36%. Besides, the “Experimentally observed clearance, lower in Chinese individuals than in Caucasian volunteers” value in series [5] was 28%.
On to `C=CCc1ccc(OC)cc1` [Estragole, 1-allyl-4-methoxybenzene], for which, in series [6], the BMDL10 was 3.3–6.5 mg/kg bw/day.
